Among the data in ChEMBL document CHEMBL1155112, “Alkaloids from the leaves of Uncaria rhynchophylla and their inhibitory activity on NO production in lipopolysaccharide-activated microglia” (J Nat Prod, 2008) are IC50, Activity and response, % of control values, retold here.

Assay [1] in a line: Inhibition of LPS-stimulated NO release in rat cortical microglial cells assessed as nitrite accumulation after 48 hrs. The class given is functional. The settings on record: Microglia.
For assay [2], the system named is Microglia. The assay is described as follows: Cell viability of rat cortical microglial cells after 48 hrs by MTT assay. The class given is functional, cell-based.
The nature of assay [3]: Inhibition of LPS-stimulated NO release in rat cortical microglial cells assessed as nitrite accumulation at 10 ug/ml after 48 hrs relative to LPS. The settings on record: Microglia, values are per cent of control. The class given is functional.
Assay [4] can be described thus: Inhibition of LPS-stimulated NO release in rat cortical microglial cells assessed as nitrite accumulation at 1 ug/ml after 48 hrs relative to LPS. The class given is functional. The settings on record: Microglia, values are per cent of control.
A short description of assay [5]: Inhibition of LPS-stimulated NO release in rat cortical microglial cells assessed as nitrite accumulation at 100 ug/ml after 48 hrs relative to LPS. The class given is functional. The settings on record: Microglia, values are per cent of control.
For assay [6], the system named is Microglia. The assay is described as follows: Cell viability of LPS-stimulated rat cortical microglial cells after 48 hrs by MTT assay. The class given is functional, cell-based.
Assay [7] is described as follows: Inhibition of NO release in LPS-stimulated rat cortical microglial cells assessed as nitrite accumulation at 30 uM after 48 hrs relative to LPS. The settings on record: Microglia, values are per cent of control. The class given is functional.
Assay [8] can be described thus: Inhibition of LPS-stimulated NO release in rat cortical microglial cells assessed as nitrite accumulation at 3 uM after 48 hrs relative to LPS. To be noted: Microglia, values are per cent of control. The class given is functional.

Calls of active or inactive are those of the source. No cut-off for these calls is given here.

`C=C[C@@H]1CN2CC[C@@]3(C(=O)Nc4ccccc43)[C@@H]2C[C@@H]1/C(=C\OC)C(=O)O`: the IC50 in assay [1] is > 100 µM. The result in the assay with Microglia [2] and in the assay on Microglia [6] was inactive. Moreover, the response, % of control at 10 µg/mL in assay [3] was determined as 107%. Also, the response, % of control at 1 µg/mL in assay [4] came to 98.8%. Also, in assay [5], the response, % of control at 100 µg/mL is 92.7%.
In the case of `C=C[C@@H]1CN2CC[C@]3(C(=O)Nc4ccccc43)[C@@H]2C[C@@H]1/C(=C\OC)C(=O)O` [18,19-DEHYDROCORYNOXINIC ACID B], the IC50 in assay [1] is > 100 µM. Also, the outcome in the assay on Microglia [2] and in the assay with Microglia [6] was inactive. Further, the response, % of control at 10 µg/mL in assay [3] was 84.2%. Besides, in assay [4], the response, % of control at 1 µg/mL came out at 81.9%. In addition, in assay [5], the response, % of control at 100 µg/mL came out at 88.9%.
`C=C[C@H]1CN2CC[C@]3(C(=O)Nc4ccccc43)[C@@H]2C[C@@H]1/C(=C\OC)C(=O)OC` [CORYNOXEINE]: the IC50 in assay [1] amounted to 15.7 µM. In addition, the result with Microglia [2] and with Microglia [6] was inactive. In assay [3], the response, % of control at 10 µg/mL was 74.5%. For the same molecule, the response, % of control at 1 µg/mL in assay [4] was 86.9%. For the same molecule, the response, % of control at 100 µg/mL in assay [5] stood at 37.9%.
For `C=C[C@H]1CN2CC[C@@]3(C(=O)Nc4ccccc43)[C@@H]2C[C@@H]1/C(=C\OC)C(=O)OC` [ISOCORYNOXEINE], the IC50 in assay [1] came out at 13.7 µM. In addition, the outcome in the assay on Microglia [2] and with Microglia [6] was inactive. In addition, the response, % of control at 10 µg/mL in assay [3] was 73.2%. The response, % of control at 1 µg/mL in assay [4] came out at 92.2%. In assay [5], the response, % of control at 100 µg/mL turned out to be 40.5%.
`CC[C@H]1CN2CC[C@@]3(C(=O)Nc4ccccc43)[C@@H]2C[C@@H]1/C(=C\OC)C(=O)OC` [ISORHYNCHOPHYLLINE]: the IC50 in assay [1] was 19 µM. Further, the result in the assay on Microglia [2] and with Microglia [6] was inactive. Besides, the response, % of control at 10 µg/mL in assay [3] worked out at 76.9%. Moreover, the response, % of control at 1 µg/mL in assay [4] stood at 95.2%. In addition, the response, % of control at 100 µg/mL in assay [5] amounted to 42.1%.
With `Oc1ccc(/C=C/c2cc(O)cc(O)c2)cc1` [RESVERATROL], the IC50 in assay [1] was determined as 11.5 µM. Besides, the response, % of control at 10 µg/mL in assay [3] was 72.4%. Also, the response, % of control at 30 µM in assay [7] came out at 43.4%. Moreover, the response, % of control at 3 µM in assay [8] was determined as 92%.
For the molecule `CC[C@H]1CN2CC[C@]3(C(=O)Nc4ccccc43)[C@@H]2C[C@@H]1/C(=C\OC)C(=O)OC` [RHYNCHOPHYLLINE], the IC50 in assay [1] came out at 18.5 µM. Moreover, the outcome with Microglia [2] and in the assay on Microglia [6] was inactive. The response, % of control at 10 µg/mL in assay [3] stood at 75.8%. Besides, the response, % of control at 1 µg/mL in assay [4] is 106%. In addition, the response, % of control at 100 µg/mL in assay [5] came out at 35.9%.
For the molecule `C=C[C@H]1C(O[C@@H]2O[C@H](CO)[C@@H](O)[C@H](O)[C@H]2O)OC=C2C(=O)N3CCc4c([nH]c5ccccc45)[C@@H]3C[C@H]21` (stereo partly specified) [VINCOSIDE LACTAM], the IC50 in assay [1] was determined as 16.4 µM. Besides, the result in the assay on Microglia [2] and with Microglia [6] was inactive. Besides, the response, % of control at 10 µg/mL in assay [3] stood at 65.7%. Also, the response, % of control at 1 µg/mL in assay [4] was found to be 71.8%. Also, the response, % of control at 100 µg/mL in assay [5] worked out at 38.6%.

As usually defined, the IC50 is the point on the concentration scale where inhibition reaches its midpoint.
